These results are taken from US6586420B1, “Quinolinecarboxylic acid derivative or its salt” (Wakunaga Pharmaceutical Co., Ltd., priority 1999, dated 2003).

In one data set the test system is MRSA W200. In words: Test on antibacterial action (MIC, standard method of Japan Society of Chemotherapy). The following applies: for MIC: Staphylococcus aureus, read-out: minimum growth inhibitory concentration (MIC). It counts as cell-based. The procedure: (§1) (1) Test on Antibacterial Action
(§2) In accordance with the standard method established by Japan Society of Chemotherapy (CHEMOTHERAPY, 29(1),76(1981)), the minimum growth inhibitory concentration (MIC: μg/mL) was measured.

The test system of another data set is S. aureus 209P. The data set is described as above. The format is cell-based. The following applies: for MIC: Staphylococcus aureus, read-out: minimum growth inhibitory concentration (MIC). On the procedure: as §1, §2
A further data set concerns B. subtilis ATCC6633. The data set is described as above. The format is cell-based. The following applies: for MIC: Bacillus subtilis, read-out: minimum growth inhibitory concentration (MIC). The procedure: as §1, §2
For a further data set, the system named is K. peumoniae KC-1. The data set is described as above. It counts as cell-based. Conditions: for MIC: read-out: minimum growth inhibitory concentration (MIC). On the procedure:
as §1, §2

In a further data set the test system is P. aeruginosa IFO3445. Described as above. It counts as cell-based. The following applies: for MIC: Pseudomonas aeruginosa, read-out: minimum growth inhibitory concentration (MIC). On the procedure: as §1, §2
The next data set relates to E. coli NIHJ-JC2. Described as above. The format is cell-based. The following applies: for MIC: Escherichia coli, NIHJJC2, read-out: minimum growth inhibitory concentration (MIC). The procedure:
as §1, §2

Another data set concerns S. aureus Smith. Described as above. Conditions: for MIC: Staphylococcus aureus, read-out: minimum growth inhibitory concentration (MIC). It counts as cell-based. The procedure: as §1, §2
In a further data set the test system is S. epidermidis IFO12293. Described as above. The following applies: for MIC: Staphylococcus epidermidis, read-out: minimum growth inhibitory concentration (MIC). The format is cell-based. On the procedure:
as §1, §2

A further data set concerns female ICR mouse. The data set can be described thus: Test on phototoxicity (ear erythema after UV exposure). It counts as in vivo. Conditions: 40 mg/kg/10 mL intravenous, UV 320 to 400 nm for 4 hours; for Phototoxicity average score (ears): 0 point no abnormality to 3 points heavy erythema or edema. The procedure:
(2) Test on Phototoxicity
The phototoxicity was tested in accordance with the following method.
After intravenous administration (40 mg/kg/10 mL) of each of the test compounds to a female ICR mouse (5-6 week old), the mouse was exposed to ultraviolet rays (320 to 400 nm, 1.8 mW/cm^2/sec) for 4 hours.
no abnormality (0 point); slight erythema (1 point); medium erythema (2 points); and heavy erythema or edema (3 points)

Data set [1] is described as follows: Test on photostability (UV spectra after UVA exposure of solution). The format is physicochemical. The following applies: solution in 0.08% NaOH diluted 100-fold with PBS(-); UVA (black light) up to 20 minutes; UV spectra 190 to 400 nm. On the procedure:
(2) Test on Photostability
The test on photostability was made in accordance with the following method.
With 0.08% NaOH, 1 mg/mL of the test compound was prepared. The resulting solution was diluted 100-fold with PBS(−). Into the wells of a 24-well plate, 1.5 ml portions of the diluted solution were poured, respectively. Just after the solution was exposed to UVA under an UV light (black light, product of Toshiba Corporation) for 0, 2, 5, 10 and 20 minutes, UV spectra within a range of 190 to 400 nm were measured (“UV-240”, product of Shimadzu Corporation).

In brackets after ≈: the same amount, converted by molar mass.

For `O=C(O)c1cn(C2CC2)c2cc(N3CCNCC3)c(F)cc2c1=O` [Ciprofloxacin, 1-cyclopropyl-6-fluoro-7-(1-piperazinyl)-1,4-dihydro-4-oxoquinoline-3-carboxylic acid], the MIC came to 0.78 µg/mL (≈ 2.35 µM) with MRSA W200; 0.2 µg/mL (≈ 0.604 µM) in the data set on S. aureus 209P; 0.05 µg/mL (≈ 0.151 µM) with B. subtilis ATCC6633; 0.025 µg/mL (≈ 0.0754 µM) in the data set with K. peumoniae KC-1; 0.39 µg/mL (≈ 1.18 µM) in the data set on P. aeruginosa IFO3445; 0.013 µg/mL (≈ 0.0392 µM) with E. coli NIHJ-JC2. For the same compound, the MIC in the data set with S. aureus Smith amounted to 0.2 µg/mL (≈ 0.604 µM); in the data set on S. epidermidis IFO12293, 0.78 µg/mL (≈ 2.35 µM).

Consider `C[C@H]1COc2c(N3CCN(C)CC3)c(F)cc3c(=O)c(C(=O)O)cn1c23` [Levofloxacin, S-(−)-9-fluoro-2,3-dihydro-3-methyl-10-(4-methyl-1-piperazinyl)-7-oxo-7H-pyrido[1,2,3-de][1,4]-benzoxazine-6-carboxylic acid], for which the MIC was determined as 0.39 µg/mL (≈ 1.08 µM) with MRSA W200; 0.2 µg/mL (≈ 0.553 µM) in the data set with S. aureus 209P; 0.1 µg/mL (≈ 0.277 µM) with B. subtilis ATCC6633; 0.05 µg/mL (≈ 0.138 µM) with K. peumoniae KC-1; 0.78 µg/mL (≈ 2.16 µM) in the data set on P. aeruginosa IFO3445; 0.05 µg/mL (≈ 0.138 µM) in the data set on E. coli NIHJ-JC2. The results for the MIC with S. aureus Smith and with S. epidermidis IFO12293 were 0.1 µg/mL (≈ 0.277 µM) and 0.39 µg/mL (≈ 1.08 µM), respectively.

For `Cc1c(N2CC(O)C2)c(F)cc2c(=O)c(C(=O)O)cn(-c3nc(N)c(F)cc3F)c12` [Compound 1, 1-(6-amino-3,5-difluoropyridin-2-yl)-6-fluoro-7-(3-hydroxyazetidin-1-yl)-8-methyl-1,4-dihydro-4-oxoquinoline-3-carboxylic acid], the Phototoxicity frequency in the data set with female ICR mouse (0 hour after exposure), in the data set on female ICR mouse (24 hours after exposure) and in the data set with female ICR mouse (48 hours after exposure) was 0/4 throughout. Moreover, the “Phototoxicity average score (ears)” value with female ICR mouse (0 hour after exposure), in the data set with female ICR mouse (24 hours after exposure) and in the data set with female ICR mouse (48 hours after exposure) was 0 each time. In addition, the “Photostability: decomposition by exposure to ultraviolet rays” value in data set [1] was “hardly decomposed”. In addition, the MIC stood at 0.013 µg/mL (≈ 0.0309 µM) with MRSA W200; 0.006 µg/mL (≈ 0.0143 µM) with S. aureus 209P; 0.025 µg/mL (≈ 0.0595 µM) in the data set with B. subtilis ATCC6633; 0.05 µg/mL (≈ 0.119 µM) with K. peumoniae KC-1; 0.39 µg/mL (≈ 0.928 µM) in the data set on P. aeruginosa IFO3445; 0.05 µg/mL (≈ 0.119 µM) in the data set on E. coli NIHJ-JC2. For the same compound, the MIC in the data set on S. aureus Smith was below 0.003 µg/mL; in the data set with S. epidermidis IFO12293, 0.013 µg/mL (≈ 0.0309 µM).

On to `NC1CCN(c2nc3c(cc2F)c(=O)c(C(=O)O)cn3-c2ccc(F)cc2F)C1` (racemic) [Tosufloxacin, (±)-7-(3-amino-1-pyrrolidinyl)-6-fluoro-1-(2,4-difluorophenyl)-1,4-dihydro-4-oxo-1,8-naphthyridine-3-carboxylic acid], for which the results for the Phototoxicity frequency with female ICR mouse (0 hour after exposure), with female ICR mouse (24 hours after exposure) and with female ICR mouse (48 hours after exposure) were 4/5, 4/5 and 1/5, respectively. Besides, the “Phototoxicity average score (ears)” value with female ICR mouse (0 hour after exposure) amounted to 1.8; with female ICR mouse (24 hours after exposure) it was 0.8; with female ICR mouse (48 hours after exposure), 0.2.

For the compound `Nc1nc(-n2cc(C(=O)O)c(=O)c3cc(F)c(N4CC(O)C4)c(Cl)c32)c(F)cc1F.OC1CNC1` [Comparative compound 1, 1-(6-amino-3,5-difluoropyridin-2-yl)-8-chloro-6-fluoro-7-(3-hydroxyazetidin-1-yl)-1,4-dihydro-4-oxoquinoline-3-carboxylic acid.3-hydroxyazetidine salt], the Phototoxicity frequency with female ICR mouse (0 hour after exposure), in the data set with female ICR mouse (24 hours after exposure) and in the data set with female ICR mouse (48 hours after exposure) was 0/4 each time. For the same compound, the “Phototoxicity average score (ears)” value with female ICR mouse (0 hour after exposure), in the data set with female ICR mouse (24 hours after exposure) and in the data set on female ICR mouse (48 hours after exposure) was 0 each time. Further, the “minimum growth inhibitory concentration (MIC)” value with MRSA W200 stood at 0.006 µg/mL; in the data set with S. aureus 209P it was 0.006 µg/mL; with B. subtilis ATCC6633, 0.05 µg/mL; in the data set on K. peumoniae KC-1, 0.05 µg/mL; in the data set with P. aeruginosa IFO3445, 0.39 µg/mL; with E. coli NIHJ-JC2, 0.05 µg/mL. Moreover, the “minimum growth inhibitory concentration (MIC)” value in the data set with S. aureus Smith is 0.003 µg/mL; with S. epidermidis IFO12293 it was 0.013 µg/mL.

`Nc1nc(-n2cc(C(=O)O)c(=O)c3cc(F)c(N4CC(O)C4)c(F)c32)c(F)cc1F` [Comparative compound 2, 1-(6-amino-3,5-difluoropyridin-2-yl)-6,8-difluoro-7-(3-hydroxyzetidin-1-yl)-1,4-dihydro-4-oxoquinoline-3-carboxylic acid]: the Phototoxicity frequency with female ICR mouse (0 hour after exposure), with female ICR mouse (24 hours after exposure) and with female ICR mouse (48 hours after exposure) was 0/4 in each case. Moreover, the “Phototoxicity average score (ears)” value with female ICR mouse (0 hour after exposure), with female ICR mouse (24 hours after exposure) and in the data set on female ICR mouse (48 hours after exposure) was 0 throughout. Further, the “minimum growth inhibitory concentration (MIC)” value with MRSA W200 is 0.025 µg/mL; in the data set on S. aureus 209P, 0.013 µg/mL; in the data set on B. subtilis ATCC6633, 0.025 µg/mL; in the data set on K. peumoniae KC-1, 0.10 µg/mL; with P. aeruginosa IFO3445, 0.39 µg/mL; in the data set with E. coli NIHJ-JC2, 0.10 µg/mL. Besides, the “minimum growth inhibitory concentration (MIC)” value was determined as 0.006 µg/mL with S. aureus Smith and 0.050 µg/mL in the data set with S. epidermidis IFO12293.
